{"source": "patent US11099176B2", "about": "(priority 2015, dated 2021)", "assay_type_in_all_cases": "binding", "key": {"[1]": {"system": "Marinobacter sp. msLacBP6 187C mutants (variants of Table 7)", "assay": "Affinity summary of msLacBP6 187C affinity-tuning mutants", "text": "In the PCS we mutated F68 (F98 in ttLacBP1) and D220 (D250 in ttLacBP1). […] It could therefore be considered part of a secondary complementary surface layer (SCS). In the interface we mutated L70 (L100 in ttLacBP1), which is located at the periphery of the lactate-binding site, and forms a contact from the N- to the C-terminal domain across the inter-domain interface.\nBoth PCS and SCS mutations perturbed the spectral shapes of the lactate-mediated responses. […] These affinity-tuned sensors therefore provide a suitable set for clinical chemistry applications."}, "[2]": {"target": "Marinobacter sp. msLacBP6 variant G170C, SEQ ID NO: 36, Badan conjugate", "assay": "Fluorescence titration of conjugate", "conditions": "read-out: trueKd (lactate); monochromatic, 520 nm"}, "[3]": {"target": "Marinobacter sp. msLacBP6 variant Y187C (187C), SEQ ID NO: 38, Badan conjugate", "assay": "Fluorescence titration of conjugate"}, "[4]": {"target": "Marinobacter sp. msLacBP6 variant 187C, L70I, SEQ ID NO: 52, Acrylodan conjugate", "assay": "Fluorescence titration of conjugate (affinity tuning)", "conditions": "λ1 452, λ2 582 nm"}, "[5]": {"target": "Marinobacter sp. msLacBP6 variant G170C, SEQ ID NO: 36, Acrylodan conjugate", "assay": "Fluorescence titration of conjugate", "conditions": "λ1 518, λ2 490 nm"}}, "note": "Like-named read-outs stand apart in the source and are kept apart here."}
{"smiles": "C[C@H](O)C(=O)O", "note": "[lactate]", "values": [{"measurement": "effect of F68 mutations on lactate affinity", "setting": "[1]; F68 mutations in 187C background", "value": "did not greatly affect lactate affinity"}, {"measurement": "Kd", "setting": "[1]; read-out: lactate affinities (range over variants), msLacBP6 Acrylodan and Badan conjugate variants", "value": "0.2 to 24", "unit": "mM"}, {"measurement": "Kd", "setting": "[2]", "value": 20, "unit": "µM"}, {"measurement": "Kd", "setting": "[3]; read-out: appKd (lactate), approximate, text statement for Acrylodan and Badan conjugates", "value": "~400", "unit": "µM"}, {"measurement": "Kd", "setting": "[3]; read-out: appKd (lactate), λ1 460, λ2 537 nm", "value": 300, "unit": "µM"}, {"measurement": "Kd", "setting": "[3]; read-out: appKd (lactate), λ1 539, λ2 459 nm (Table 6)", "value": 110, "unit": "µM"}, {"measurement": "Kd", "setting": "[3]; read-out: trueKd (lactate), λ1 460, λ2 537 nm", "value": 200, "unit": "µM"}, {"measurement": "Kd", "setting": "[3]; read-out: trueKd (lactate), λ1 539, λ2 459 nm (Table 6)", "value": 250, "unit": "µM"}, {"measurement": "Kd", "setting": "[4]; read-out: appKd (lactate)", "value": 400, "unit": "µM"}, {"measurement": "Kd", "setting": "[4]; read-out: trueKd (lactate)", "value": 300, "unit": "µM"}, {"measurement": "Kd", "setting": "[5]; read-out: appKd (lactate)", "value": 10, "unit": "µM"}, {"measurement": "Kd", "setting": "[5]; read-out: trueKd (lactate)", "value": 5, "unit": "µM"}]}
